Data published in patent publication US20180156826A1, “COMPOSITIONS AND METHODS FOR DIAGNOSIS OF AUTISM SPECTRUM DISORDER” (The Board of Regents of the University of Texas System, priority 2015, published 2018).
Square brackets hold non-standard residues; d marks the D form. Peptide text beside a SMILES is read from it. ξ: configuration not given here. N(3,4-(MeO)2phenethyl)Gly = COc1ccc(CCNCC(=O)O)cc1OC; Gly(N-(CH2)3OMe) = COCCCNCC(=O)O; Gly(N-cHex) = O=C(O)CNC1CCCCC1; Nleu = CC(C)CNCC(=O)O; Nme = COCCNCC(=O)O; ξC = NC(CS)C(=O)O

Columns and labels:
serum IgG = assay: Peptoid ELISA, total IgG detection with serum pools; assay type: binding, human; settings: pooled serum of 10 TD males vs 10 ASD males
Protocol: (§1) Peptoid compounds were immobilized onto maleimide-activated 96-well plates (Pierce Biotechnology, Rockford, Ill.) by dissolving them to 0.03-0.05 mM in a 0.1 M sodium phosphate, 0.15 M sodium chloride, 10 mM EDTA solution adjusted to pH 7.2 and incubating with shaking for 3 hrs at RT. Plates were washed with PBST and blocked with a 5% goat serum (Thermo Scientific, Rockford, Ill.) in PBST solution for 1 hr at RT. Plates were washed again and incubated with target (serum) samples diluted in blocking buffer (1:1 PBST-1% BSA and SuperBlock) for 2 hrs at RT. After washing, plates were incubated with Goat anti-Human IgG-Fc-HRP conjugate (Bethyl Laboratories, Montgomery, Tex.) diluted 1:30,000 in PBST-1% BSA or mouse anti-human IgG1 (hinge)-HRP conjugate (SouthernBiotech, Birmingham, Ala.) diluted 1:1000 in PBST-1% BSA for 30 min at RT. After another wash, plates were incubated in TMB substrate for 16 min at RT and stopped with 2M H2SO4. Plates were read at 450 nm. All samples were run in duplicate, and every assay contained ASD and TD serum pool samples to serve as internal controls. Results for individual samples were assessed as ratios to the ASD serum pool so as to control for plate-to-plate variation.
Using the same two serum pools as used during screening, the “hit” peptoids were then tested by ELISA for their ability to bind IgG from the two pools. […]

serum IgG1 = assay: Peptoid ELISA, IgG1 subclass detection; assay type: binding, human
Protocol: as §1

Q: Which “differentiation in binding between the serum pools, total IgG” value (serum IgG) does the source give for `COCCCN(CC(=O)N(CCc1ccc(OC)c(OC)c1)CC(=O)N(CC(=O)N(CC(=O)N(CCCOC)CC(=O)N(CC(=O)N(CCOC)CC(=O)NC(CS)C(N)=O)C1CCCCC1)CC(C)C)C1CCCCC1)C(=O)CNCCc1ccc(OC)c(OC)c1` (stereo not shown) [ASD1] (H-[N(3,4-(MeO)2phenethyl)Gly][Gly(N-(CH2)3OMe)][N(3,4-(MeO)2phenethyl)Gly][Gly(N-cHex)][Nleu][Gly(N-(CH2)3OMe)][Gly(N-cHex)][Nme][ξC]-NH2) here?
A: two-fold

Q: What about the “ASD1 binding, ASD females” value (serum IgG1; ASD female serum samples, n=10) of the same compound?
A: 1.76±0.81

Q: And the “ASD1 binding, TD females” value (serum IgG1; TD female serum samples, n=20)?
A: 1.97±0.38

Q: And the “ASD1 binding of IgG1 from ASD males” value (serum IgG1; individual ASD male serum samples, n=50, 1:100 dilution, ratio of sample absorbance to control serum pool, error SEM)?
A: 1.33±0.31

Q: And the “ASD1 binding of IgG1 from TD males” value (serum IgG1; individual TD male serum samples, n=43, 1:100 dilution, ratio of sample absorbance to control serum pool, error SEM)?
A: 2.88±0.55

Q: What about the “ASD1 binding of IgG1 from older adult males” value (serum IgG1; older adult male serum, n=53, compared with ASD and TD males) of the same compound?
A: did not differ from that of the ASD males, but was significantly lower than that of the TD males

Q: And the “differentiation in binding between the serum pools, secondary antibody specific to IgG1 subclass” value (serum IgG1; pooled serum of 10 TD males vs 10 ASD males)?
A: nearly four-fold
